Experimental data as given in patent US20240246980A1, “MODULATORS OF MAS-RELATED G-PROTEIN RECEPTOR D AND RELATED PRODUCTS AND METHODS” (Escient Pharmaceuticals, Inc., priority 2022, published 2024).
pIC50: −log10 of the molar value.

Biological target: human MRGPRD (Homo sapiens, UniProt Q8TDS7)
Test: MRGPRD antagonist activity, IP-One HTRF assay in CHO cells stably expressing human MRGPRD (versus 100 μM β-Alanine agonist)
Assay type: cell-based
Description: Chinese Hamster Ovary (CHO) cells stably expressing human MRGPRD (Eurofins, San Diego CA) were plated in a 384-well plate at 20,000 cells per well in 12 μL of Optimem (Fisher Scientific 11-058-021). Plates were kept in the incubator at 37° C. overnight. Antagonists were solubilized at a concentration of 10 mM in DMSO, and the agonists were solubilized to stock concentrations of either 50 mM in H2O (β-Alanine) or 10 mM in DMSO (all others) and then diluted in assay buffer (final concentrations of 5.7 mM Tris-HCl, 43 mM NaCl, 50 mM LiCl, pH=8). The concentration of DMSO was normalized across the plate. Antagonists were added to the plate using a Tecan D300 Digital Dispenser at nanoliter/picoliter volumes and 2 μL of agonists in assay buffer were added to each well for a final assay volume of 14 μL. Plates were covered and incubated for 1 h at 37° C. and then for 1 h at room temperature. IP-1 standards and HTRF detection reagents were added according to an IP-One-Gq Kit purchased from Cisbio (part number 62IPAPEJ) and incubated in the dark for 1 h at room temperature. Assay plates were read on either a Molecular Devices SpectraMax iD5 plate reader or a BMG ClarioStar plate reader. The HTRF ratio was calculated form the raw data and graphed using GraphPad Prism to calculate IC50 values. Data are expressed as average IC50 values and average percent antagonism calculated as a percent of the maximum efficacy response. For these studies, the variability of the data was assessed by determining the standard error of mean (SEM).
The activity ranges are denoted as follows: “+++++” denotes antagonist activity <100 nM; “++++” denotes antagonist activity between 100 and 500 nM; “+++” denotes activity between 500 and 1000 nM; “++” denotes activity between 1000 and 3000 nM; and “+” denotes activity >3000 nM.

Chain of human MRGPRD (Q8TDS7 whole entry): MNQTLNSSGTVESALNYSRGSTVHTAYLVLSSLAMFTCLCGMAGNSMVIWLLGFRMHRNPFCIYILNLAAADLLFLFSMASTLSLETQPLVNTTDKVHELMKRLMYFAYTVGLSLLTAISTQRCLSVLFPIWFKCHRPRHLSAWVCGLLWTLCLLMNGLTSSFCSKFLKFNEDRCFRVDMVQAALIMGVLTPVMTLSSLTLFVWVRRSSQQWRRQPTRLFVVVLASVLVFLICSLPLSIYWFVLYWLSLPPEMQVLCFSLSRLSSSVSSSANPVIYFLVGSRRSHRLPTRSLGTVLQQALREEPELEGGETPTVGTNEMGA

Row | SMILES | pIC50
1 | COc1cccc(-c2nc([C@@H]3CCCN(C(=O)N[C@H]4CC[C@@H](O)CC4)C3)n3ccccc23)c1 [Compound 5-56] | 6.30 to 7.00
2 | COc1cccc(-c2nc([C@@H]3CCCN(C(=O)Nc4ccc5c(c4)COCO5)C3)n3ccccc23)c1 [Compound 5-57] | > 7.00
3 | COc1ccc(CNC(=O)N2CCC[C@@H](c3nc(-c4cccc(OC)c4)c4ccccn34)C2)cc1 [Compound 5-58] | > 7.00
4 | COc1cccc(-c2nc([C@@H]3CCCN(C(=O)Nc4cc(C)nn4C)C3)n3ccccc23)c1 [Compound 5-59] | > 7.00
5 | COc1cccc(-c2nc([C@@H]3CCCN(C(=O)NCc4ccccc4)C3)n3ccccc23)c1 [Compound 5-60] | > 7.00
6 | COc1cccc(-c2nc([C@@H]3CCCN(C(=O)Nc4cccc(-c5csc(C)n5)c4)C3)n3ccccc23)c1 [Compound 5-61] | > 7.00
7 | COc1cccc(-c2nc([C@@H]3CCCN(C(=O)Nc4cnc5ccccn45)C3)n3ccccc23)c1 [Compound 5-62] | > 7.00
8 | COc1cccc(-c2nc([C@@H]3CCCN(C(=O)Nc4ccc(CC#N)cc4)C3)n3ccccc23)c1 [Compound 5-63] | > 7.00
9 | COc1cccc(-c2nc([C@@H]3CCCN(C(=O)NC4CCN(C)CC4)C3)n3ccccc23)c1 [Compound 5-64] | 6.00 to 6.30
10 | COc1cccc(-c2nc([C@@H]3CCCN(C(=O)Nc4ccc5ncsc5c4)C3)n3ccccc23)c1 [Compound 5-65] | > 7.00
11 | COc1cccc(-c2nc([C@@H]3CCCN(C(=O)Nc4nocc4C)C3)n3ccccc23)c1 [Compound 5-66] | > 7.00
12 | COc1cccc(-c2nc([C@@H]3CCCN(C(=O)Nc4nccs4)C3)n3ccccc23)c1 [Compound 5-67] | > 7.00
13 | CCn1cc(CNC(=O)N2CCC[C@@H](c3nc(-c4cccc(OC)c4)c4ccccn34)C2)cn1 [Compound 5-68] | > 7.00
14 | COc1cccc(-c2nc([C@@H]3CCCN(C(=O)Nc4cc(C#N)on4)C3)n3ccccc23)c1 [Compound 5-69] | > 7.00
15 | COc1cccc(-c2nc([C@@H]3CCCN(C(=O)N[C@H]4CC[C@H](O)CC4)C3)n3ccccc23)c1 [Compound 5-70] | > 7.00
16 | COc1cccc(-c2nc([C@@H]3CCCN(C(=O)NC4CC(C)C4)C3)n3ccccc23)c1 (some centres unmarked) [Compound 5-71] | > 7.00
17 | COc1cccc(-c2nc([C@@H]3CCCN(C(=O)Nc4cnc(N(C)C)nc4)C3)n3ccccc23)c1 [Compound 5-72] | > 7.00
18 | COc1cccc(-c2nc([C@@H]3CCCN(C(=O)Nc4cnc(C)nc4)C3)n3ccccc23)c1 [Compound 5-73] | > 7.00
19 | COc1cccc(-c2nc([C@@H]3CCCN(C(=O)Nc4cccc(CO)c4)C3)n3ccccc23)c1 [Compound 6-1, (R)—N-(3-(hydroxymethyl)phenyl)-3-(1-(3-methoxyphenyl)imidazo[1,5-a]pyridin-3-yl)piperidine-1-carboxamide] | > 7.00
20 | CNc1ccc(NC(=O)N2CCC[C@@H](c3nc(-c4cccc(OC)c4)c4ccccn34)C2)cc1 [Compound 7-1, (R)-3-(1-(3-methoxyphenyl)imidazo[1,5-a]pyridin-3-yl)-N-(4-(methylamino)phenyl)piperidine-1-carboxamide] | > 7.00
21 | COc1cccc(-c2nc(-c3cccc(C(=O)Nc4cccc(N(C)C)c4)c3)n3ccccc23)c1 [Compound 8-1, N-(3-(dimethylamino)phenyl)-3-(1-(3-methoxyphenyl)imidazo[1,5-a]pyridin-3-yl)benzamide] | 6.30 to 7.00
22 | COc1cccc(-c2nc(-c3cccc(C(=O)Nc4ccc(N(C)C)cc4)c3)n3ccccc23)c1 [Compound 8-2] | > 7.00
23 | COc1cccc(-c2nn(C3CCCN(C(=O)Nc4ccc(N(C)C)cc4)C3)c3ncccc23)c1 (centres unmarked) [Compound 9-1, N-(4-(dimethylamino)phenyl)-3-(3-(3-methoxyphenyl)-1H-pyrazolo[3,4-b]pyridin-1-yl)piperidine-1-carboxamide] | > 7.00
24 | COc1cccc(-c2nn(C3CCCN(C(=O)Nc4cccc(N(C)C)c4)C3)c3ncccc23)c1 (centres unmarked) [Compound 9-2] | > 7.00

Row | SMILES | pIC50
25 | CN(C)c1ccc(NC(=O)N2CCC[C@@H](c3nc(-c4ccccc4)c4ccccn34)C2)cc1 [Compound 10-2] | 6.00 to 6.30
26 | CN(C)c1ccc(NC(=O)N2CCC[C@@H](c3nc(-c4ccccc4C(F)(F)F)c4ccccn34)C2)cc1 [Compound 10-3] | 6.00 to 6.30
27 | CCOc1cccc(-c2nc([C@@H]3CCCN(C(=O)Nc4ccc(N(C)C)cc4)C3)n3ccccc23)c1 [Compound 10-4] | > 7.00
28 | CN(C)c1ccc(NC(=O)N2CCC[C@@H](c3nc(-c4cccc(O)c4)c4ccccn34)C2)cc1 [Compound 10-5] | 6.00 to 6.30
29 | CN(C)c1ccc(NC(=O)N2CCC[C@@H](c3nc(-c4cccc(N(C)C)c4)c4ccccn34)C2)cc1 [Compound 10-6] | 6.30 to 7.00
30 | CC(=O)c1cccc(-c2nc([C@@H]3CCCN(C(=O)Nc4ccc(N(C)C)cc4)C3)n3ccccc23)c1 [Compound 10-7] | > 7.00
31 | CN(C)c1ccc(NC(=O)N2CCC[C@@H](c3nc(-c4ccccc4Cl)c4ccccn34)C2)cc1 [Compound 10-8] | 6.00 to 6.30
32 | CCc1cccc(-c2nc([C@@H]3CCCN(C(=O)Nc4ccc(N(C)C)cc4)C3)n3ccccc23)c1 [Compound 10-9] | 6.00 to 6.30
33 | CN(C)c1ccc(NC(=O)N2CCC[C@@H](c3nc(-c4cccc(-c5ccccc5)c4)c4ccccn34)C2)cc1 [Compound 10-10] | < 5.52
34 | CN(C)c1ccc(NC(=O)N2CCC[C@@H](c3nc(-c4cccc(C(F)(F)F)c4)c4ccccn34)C2)cc1 [Compound 10-11] | 6.00 to 6.30
35 | CN(C)c1ccc(NC(=O)N2CCC[C@@H](c3nc(-c4cccc(C#N)c4)c4ccccn34)C2)cc1 [Compound 10-12] | 6.00 to 6.30
36 | CC(C)Oc1cccc(-c2nc([C@@H]3CCCN(C(=O)Nc4ccc(N(C)C)cc4)C3)n3ccccc23)c1 [Compound 10-13] | 6.00 to 6.30
37 | CN(C)c1ccc(NC(=O)N2CCC[C@@H](c3nc(-c4ccc(OC(F)(F)F)cc4)c4ccccn34)C2)cc1 [Compound 10-14] | 5.52 to 6.00
38 | CN(C)c1ccc(NC(=O)N2CCC[C@H](c3nc(-c4ccccc4)c4ccccn34)C2)cc1 [Compound 10-15] | 5.52 to 6.00
39 | CN(C)c1ccc(NC(=O)N2CCC[C@@H](c3nc(-c4cccc(C(F)F)c4)c4ccccn34)C2)cc1 [Compound 10-16] | 6.30 to 7.00
40 | COc1cc(OC)cc(-c2nc([C@@H]3CCCN(C(=O)Nc4ccc(N(C)C)cc4)C3)n3ccccc23)c1 [Compound 10-17] | > 7.00
41 | CC(O)c1cccc(-c2nc([C@@H]3CCCN(C(=O)Nc4ccc(N(C)C)cc4)C3)n3ccccc23)c1 (some centres unmarked) [Compound 10-18] | 6.30 to 7.00
42 | CN(C)c1ccc(NC(=O)N2CCC[C@@H](c3nc(-c4ccc(Cl)cc4)c4ccccn34)C2)cc1 [Compound 10-19] | 6.00 to 6.30
43 | CN(C)c1ccc(NC(=O)N2CCC[C@@H](c3nc(-c4ccccc4-c4ccccc4)c4ccccn34)C2)cc1 [Compound 10-20] | < 5.52
44 | CCc1ccccc1-c1nc([C@@H]2CCCN(C(=O)Nc3ccc(N(C)C)cc3)C2)n2ccccc12 [Compound 10-21] | 6.30 to 7.00
45 | CN(C)c1ccc(NC(=O)N2CCC[C@@H](c3nc(-c4cccc(Cl)c4)c4ccccn34)C2)cc1 [Compound 10-22] | 6.00 to 6.30
46 | CN(C)c1ccc(NC(=O)N2CCC[C@@H](c3nc(-c4ccc(C#N)cc4)c4ccccn34)C2)cc1 [Compound 10-23] | 6.00 to 6.30
47 | CN(C)c1ccc(NC(=O)N2CCC[C@@H](c3nc(-c4cccc(OC(F)(F)F)c4)c4ccccn34)C2)cc1 [Compound 10-24] | 6.00 to 6.30
